Reference: ChEMBL document CHEMBL1157777, “Identification of hits as matrix-2 protein inhibitors through the focused screening of a small primary amine library” (J Med Chem, 2010)
Calls of active or inactive are those of the source. The rule behind the calls is not given here.

How the values were obtained:
Influenza A virus = experiment: Antiviral activity against Influenza A virus (A/Hong Kong/8/1968([…])) infected in MDCK cells; type: functional, organism-based
[1] = Inhibition of avian influenza virus (H5N1) matrix 2 protein expressed in HEK293 cells by path clamp electrophysiology method; type: cell-based; details: Influenza A virus
[2] = Inhibition of avian influenza virus H5N1 matrix 2 protein expressed in HEK293 cells assessed as cell viability after 24 hrs; type: cell-based; details: Influenza A virus, H5N1, HEK293, 24 h
HEK293 = experiment: Inhibition of avian influenza virus (H5N1) matrix 2 protein expressed in HEK293 cells at 50 uM by path clamp electrophysiology method; type: cell-based; details: Influenza A virus

In the case of C[C@H]1[C@H](N)C[C@@H]2C[C@H]1C2(C)C, the IC50 (Influenza A virus) is reported as 1.36 µM, the IC50 [1] is reported as 4.3 µM and the IC50 [2] is reported as 5.96 µM.
In the case of NC12CC3CC(CC(C3)C1)C2 [AMANTADINE], the IC50 (Influenza A virus) is reported as 5.96 µM, the IC50 [1] is reported as 8.8 µM and the inhibition (HEK293) is reported as “inactive”. For the same compound, the IC50 [2] was 3.52 µM.
With CC1(C)[C@@H]2CC[C@H](CN)[C@H]1C2 the IC50 (Influenza A virus) was 2.3 µM, the IC50 [1] was 4.4 µM and the IC50 [2] was 25.5 µM.
For NC12CC3CC(CC1C3)C2, the IC50 (Influenza A virus) was 38.2 µM, the IC50 [1] was 13.5 µM and the IC50 [2] was 19 µM.
Work on C[C@@H]1[C@@H](N)C[C@H]2C[C@@H]1C2(C)C yielded an IC50 (Influenza A virus) of 6.02 µM, an IC50 [1] of 6.8 µM and an IC50 [2] of 23 µM.
CC(C)(C)C1CCC(N)CC1 (centres undefined) showed an IC50 (Influenza A virus) of 33.5 µM, an IC50 [1] of 4.8 µM and an IC50 [2] of 3.37 µM.
